Source: US4206221A, “Cephalomannine and its use in treating leukemic tumors” (priority 1979, dated 1980)
Converted amounts (≈) assume the structure as drawn. Where two headings read alike, the source gives them in different places.

Columns and labels:
[1] = test system: lymphocytic leukemia cells of the strain P388; assay: P388 lymphocytic leukemia implanted in mice, survival time (T/C), National Cancer Institute Protocol 1.200; format: in vivo; details: intraperitoneal, once a day for 9 days, female DBA/2 mice, 125% or above considered active
Text: The effectiveness of alkaloid compounds against lymphocytic leukemia cells of the strain P388 implanted in mice is another method of determining activity. These assays are made according to the National Cancer Institute Protocol 1.200 described in Geran et al. referred to above. The usefulness of cephalomannine as compared to taxol was ascertained by assaying Fractions K263 and K264 from Example 1 by this procedure. Starting 24 hr. after the tumor implantation, previously determined dosages of each compound were injected intraperitoneally once a day for 9 days. Survival time of treated leukemic mice is compared to that of untreated leukemic mice (T/C×100). A T/C value of 100% indicated no activity. A T/C value greater than 100% means that the treated mice are surviving longer than the control mice. A compound giving a T/C value greater than 125% is indicative of activity as defined by the NCI Protocols, above.
^1 All mice were female, DBA/2.
^2 The injection vehicle was saline + Tween 80 + alcohol.
^3 One intraperitoneal injection per day for 9 days.
^4 T/C = mean survival time of test animals/mean survival time of […]

[2] = test system: KB cell culture; assay: cells; format: cell-based; details: for IC50: Homo sapiens, KB, 72 h, read-out: ED 50 (dose that inhibits growth to 50% of control growth); for activity in KB cell culture (in words): assay of extract and of fractions during isolation
Description: The chemotherapeutic activities of the fractions obtained in the isolation procedure may be determined by a KB Cell Culture Screen in accordance with the National Cancer Institute Protocol 1.600 [Geran et al., Cancer Chemother. Rep., Part 3, 3: 17 (1972)]. […] Such a dose is referred to as ED 50 and activity is indicated for ED 50 levels of ≤30 μg./ml.

[3] = test system: leukemia; assay: activity against leukemia in animals (general statement); details: in vivo
[4] = test system: leukemia; details: background, literature; cited from earlier work

| SMILES | T/C (mean survival time of test animals/mean survival time of control animals) ([1]; 1.00 mg./kg./inj.) | T/C (mean survival time of test animals/mean survival time of control animals) ([1]; 1.40 mg./kg./inj.) | T/C (mean survival time of test animals/mean survival time of control animals) ([1]; 2.20 mg./kg./inj.) | T/C (mean survival time of test animals/mean survival time of control animals) ([1]; 3.30 mg./kg./inj.) | IC50 [2] | activity in KB cell culture (in words) [2] | activity against leukemia in animals (in words) [3] | antileukemic / antitumor / chemotherapeutic activity (in words) [4] | IC50 ([2]; 3 days after drug addition, active if ED 50 ≤30 μg./ml.) |
| --- | --- | --- | --- | --- | --- | --- | --- | --- | --- |
| CC=C(C)C(=O)NC(c1ccccc1)C(O)C(=O)O[C@H]1C[C@@]2(O)[C@@H](OC(=O)c3ccccc3)[C@@H]3[C@]4(OC(C)=O)CO[C@@H]4C[C@H](O)[C@@]3(C)C(=O)[C@H](OC(C)=O)C(=C1C)C2(C)C (single isomer, unassigned) [cephalomannine] | 152% | 159% | 162% | 180% | 3.8 ng/mL (≈ 4.57 nM) | showed activity | demonstrates activity against leukemia in animals |  |  |
| CC(=O)O[C@H]1C(=O)[C@@]2(C)[C@H]([C@H](OC(=O)c3ccccc3)[C@]3(O)C[C@H](OC(=O)C(O)C(NC(=O)c4ccccc4)c4ccccc4)C(C)=C1C3(C)C)[C@]1(OC(C)=O)CO[C@@H]1C[C@@H]2O (single isomer, unassigned) [taxol, reference compound] |  | 148% | 152% |  |  | showed activity |  | antileukemic and antitumor agent | 1.2 ng/mL (≈ 1.41 nM) |
